The results in this text go back to patent publication US10267737B2, “Near-infrared fluorescent probe for detecting alkaline phosphatase and manufacturing method thereof” (KOREA RESEARCH INSTITUTE OF BIOSCIENCE AND BIOTECHNOLOGY, priority 2016, dated 2019).

In data set [1] the test system is ALP. Kind of data set: Evaluation of sensitivity for ALP with ALP inhibitor p-BTO pre-treatment. The data set is classed as biochemical. The note with it: for sensitivity for ALP: with and without p-BTO pre-treatment. The protocol: After pre-treating with the ALP inhibitor p-BTO (p-bromotetramisole oxalate) at 1-2.5 mM, the fluorescent probe was mixed with ALP.

Data set [2] has as its system ALP. Kind of data set: Fluorescence response depending on ALP concentration. In kind it is biochemical. The conditions noted are these: for new absorption peak in the presence of ALP: probe 5 μM, ALP 0.1 UmL^−1, Tris-HCl 10 mM, pH 7.4; for fluorescence due to dephosphorylation of ALP: λex=685 nm. The protocol:
Reactivity depending on ALP concentration was evaluated for the NIR-Phos-1 and NIR-Phos-2 fluorescent probes. After dissolving the fluorescent probe (5 μM) in a Tri-HCl buffer (10 mM, pH 7.4), the fluorescence spectrum occurring as a result of reaction with ALP (0.1 UmL^−1) was investigated.
From FIG. 5B and FIG. 5D, it can be seen that fluorescence spectra are changed variously by adding a Tris-HCl buffer (10 mM, pH 7.4) to ALP (10^−5 to 1.0 UmL^−1) of various concentrations.

In data set [3] the test system is ALP. Kind of data set: Evaluation of selective ALP detection. In kind it is biochemical. The conditions noted are these: versus BSA, trypsin, lysozyme, AcHE, GOx, uricase, thrombin. An excerpt:
ALP, BSA, trypsin, lysozyme, acetylcholinesterase (AcHE), glucose oxidase (GOx), uricase and thrombin were used for the evaluation.

Data set [4] can be described thus: Fluorescence stability (photostability) test. In kind it is physicochemical. The note with it: 685 nm light, 150-W xenon lamp, 1 hour, Tris-HCl 10 mM, pH 7.4. How it is done:
The photostability of a fluorescent probe is important for in-vitro and in-vivo fluorescence detection. Therefore, the photostability of the NIR-Phos-1 and NIR-Phos-2 fluorescent probes was evaluated by irradiating light at 685 nm from a 150-W xenon lamp for 1 hour in a Tris-HCl buffer (10 mM, pH 7.4) and measuring the change in fluorescence intensity.

A short description of data set [5]: Affinity for calcium salts, NIR fluorescence imaging. In kind it is binding. The conditions noted are these: PBS buffer. The protocol:
The affinity of the NIR-Phos-1 and NIR-Phos-2 fluorescent probes for a calcium salt-containing scaffold was evaluated. As the scaffold, calcium carbonate (CC), calcium phosphate (CP), hydroxyapatite (HA), calcium perchlorate (CPC), calcium chloride (CCH) and calcium nitrate (CN) were used. The fluorescent probe and the scaffold were immersed in a PBS buffer and subjected to NIR fluorescence imaging.

A short description of data set [6]: Affinity for scaffold, light absorption of probe solution after adsorption. In kind it is binding. The conditions noted are these: CDHA scaffold.
Assay in data set [7]: as above
In kind it is binding. The note with it: CDHA/DCPD scaffold.

Molecules are shown by their SMILES.

For the molecule `CC[N+]1=C(/C=C/C2=C3Oc4cc(OCc5ccc(OP(=O)(O)O)cc5)ccc4C=C3CCC2)C(C)(C)c2cc(S(=O)(=O)[O-])ccc21` [NIR-Phos-1, (E)-1-ethyl-3,3-dimethyl-2-(2-(6-((4-(phosphonooxy)benzyl)oxy)-2,3-dihydro-1H-xanthen-4-yl)vinyl)-3H-indol-1-ium-5-sulfonate], the “sensitivity for ALP” value in the data set on ALP [1] was “good sensitivity”. The “new absorption peak in the presence of ALP” value in the data set on ALP [2] is 710 nm. Moreover, in the data set on ALP [2], the “fluorescence due to dephosphorylation of ALP” value was 710 nm. Also, in the data set on ALP [3], the “selective detection of ALP” value is “selectively detect ALP only”. Further, the “photostability (change in fluorescence intensity)” value in data set [4] was “superior photostability”. In addition, in data set [5], the “affinity for hydroxyapatite (HA) particles compared to calcium salts CC, CP, CPC, CCH, CN” value was “higher affinity”. The figures for the “decrease of light absorption by the probe solution after adsorption” value in data set [6] and in data set [7] were 29.4% and 3.8%, respectively.
With `CC[N+]1=C(/C=C/C2=C3Oc4cc(OP(=O)(O)O)ccc4C=C3CCC2)C(C)(C)c2cc(S(=O)(=O)[O-])ccc21` [NIR-Phos-2, (E)-1-ethyl-3,3-dimethyl-2-(2-(6-(phosphonooxy)-2,3-dihydro-1H-xanthen-4-yl)vinyl)-3H-indol-1-ium-5-sulfonate], the “sensitivity for ALP” value in the data set on ALP [1] is reported as “good sensitivity”. In the data set on ALP [2], the “new absorption peak in the presence of ALP” value stood at 710 nm and the “fluorescence due to dephosphorylation of ALP” value is on record as 710 nm. Besides, the “selective detection of ALP” value in the data set on ALP [3] is listed as “selectively detect ALP only”. Moreover, the “photostability (change in fluorescence intensity)” value in data set [4] was “superior photostability”. Also, in data set [5], the “affinity for hydroxyapatite (HA) particles compared to calcium salts CC, CP, CPC, CCH, CN” value is listed as “higher affinity”.
Take `Brc1ccc(C2CN3CCSC3=N2)cc1.O=C(O)C(=O)O` (stereo not drawn) [p-BTO, p-bromotetramisole oxalate, reference compound]: in the data set with ALP [1] (p-BTO 1-2.5 mM pre-treatment, fluorescence intensity decreased gradually as p-BTO concentration increased), the “hydrolysis of the fluorescent probe and ALP” value is reported as “inhibited”.
